Data taken from patent US9365541B2, “Compounds for use in the treatment of parasitic diseases” (IRBM—SCIENCE PARK S.P.A., priority 2012, dated 2016).

Key:
human HDAC1 = biological target: T1, human HDAC1 (Homo sapiens, UniProt Q13547); test: Homo sapiens HDAC1 inhibition assay (Fluor-de-Lys, enzymatic); type: biochemical; conditions: human HDAC enzymatic assay; read-out: hHDAC IC50
T1 construct: made in house; host or cells: HeLa (ATCC CCL-2), mammalian cells
Method in brief: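 Fluorogenic deacetylation read-out: trypsin developer, supplemented with 2 μM final TSA as stop, releases fluorophore from deacetylated substrate.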

[1] = tested on: Plasmodium falciparum 3D7; test: P. falciparum growth inhibition assay (Pf-LDH); type: cell-based; conditions: Plasmodium falciparum, Erythrocyte; P. falciparum 3D7 infected erythrocytes, 72 h incubation, PfLDH readout
Method in brief: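 Compounds were tested against 72 h cultures of the 3D7 strain (0.25% parasitemia, 2% hematocrit, 37° C, low-oxygen gas). Parasite growth was quantified as lactate dehydrogenase activity via NBT reduction, absorbance 650 nm, after freezing and thawing.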

T1 sequence (Q13547 whole entry): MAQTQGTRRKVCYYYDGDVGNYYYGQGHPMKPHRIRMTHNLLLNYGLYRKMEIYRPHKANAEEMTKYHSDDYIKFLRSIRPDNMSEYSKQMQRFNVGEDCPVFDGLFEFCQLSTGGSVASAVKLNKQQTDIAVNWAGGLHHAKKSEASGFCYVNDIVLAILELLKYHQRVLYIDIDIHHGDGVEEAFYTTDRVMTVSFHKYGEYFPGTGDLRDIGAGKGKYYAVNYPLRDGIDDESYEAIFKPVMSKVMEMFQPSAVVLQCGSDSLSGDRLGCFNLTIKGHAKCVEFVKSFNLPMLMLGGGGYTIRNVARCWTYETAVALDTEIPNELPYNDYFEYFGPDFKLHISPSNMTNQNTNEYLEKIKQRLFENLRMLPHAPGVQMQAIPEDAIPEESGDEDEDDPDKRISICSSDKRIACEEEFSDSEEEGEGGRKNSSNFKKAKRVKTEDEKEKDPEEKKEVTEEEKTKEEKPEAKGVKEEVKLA

Structure (SMILES) | IC50 (human HDAC1) | EC50 [1]
CNC(=O)CCCCC[C@H](NC(=O)c1cncs1)c1ncc(-c2cc3ccccc3[nH]c2=O)[nH]1 [Entry 193, (S)-N-(7-(methylamino)-7-oxo-1-(5-(2-oxo-1,2-dihydroquinolin-3-yl)-1H-imidazol-2-yl)heptyl)thiazole-5-carboxamide] | < 1000 nM | < 1000 nM
CNC(=O)CCCCC[C@H](NC(=O)[C@H]1CCN(C)C1)c1ncc(-c2ccc3ccccc3c2)[nH]1 [Entry 4, (S)-1-methyl-N-((S)-7-(methylamino)-1-(5-(naphthalen-2-yl)-1H-imidazol-2-yl)-7-oxo-heptyl)pyrrolidine-3-carboxamide] | < 1000 nM | 1000 to 5000 nM
CNC(=O)CCCCC[C@H](NC(=O)C12CCN(CC1)CC2)c1ncc(-c2ccc3ncccc3c2)[nH]1 [Entry 152] | < 1000 nM | 1000 to 5000 nM
CCOc1cccc2cc(-c3cnc([C@H](CCCCCC(=O)NC)NC(=O)c4cncs4)[nH]3)ccc12 [Entry 25, (S)-N-(1-(5-(5-ethoxynaphthalen-2-yl)-1H-imidazol-2-yl)-7-(methylamino)-7-oxoheptyl)thiazole-5-carboxamide] | 1000 to 5000 nM | < 1000 nM
CNC(=O)CCCCC[C@H](NC(=O)C1(C)CCOCC1)c1ncc(-c2ccc3ccccc3c2)[nH]1 [Entry 40] | 1000 to 5000 nM | 1000 to 5000 nM
CNC(=O)CCCCC[C@H](NC(=O)Cc1cnc2ccccc2c1)c1ncc(-c2ccc(-n3cccn3)cc2)[nH]1 [Entry 110] | < 1000 nM | 1000 to 5000 nM
CNC(=O)CCCCC[C@H](NC(=O)C1CCC1(F)F)c1ncc(-c2ccc(-c3ccn(C)n3)cc2)[nH]1 (stereo partly drawn) [Entry 91, 2,2-difluoro-N-((S)-1-(5-(4-(1-methyl-1H-pyrazol-3-yl)phenyl)-1H-imidazol-2-yl)-7-(methylamino)-7-oxo-heptyl)cyclobutane-carboxamide] | > 5000 nM | > 5000 nM
CCN1CCCC(C(=O)N[C@@H](CCCCCC(=O)NC)c2ncc(-c3ccc4ccccc4c3)[nH]2)C1 (stereo partly drawn) [Entry 176, 1-ethyl-N-((S)-7-(methylamino)-1-(5-(naphthalen-2-yl)-1H-imidazol-2-yl)-7-oxo-heptyl)piperidine-3-carboxamide] | < 1000 nM | 1000 to 5000 nM
CNC(=O)CCCCC[C@H](NC(=O)CCN1CCCCC1)c1ncc(-c2cc3ccccc3nc2OC)[nH]1 [Entry 99] | < 1000 nM | 1000 to 5000 nM
CNC(=O)CCCCC[C@H](NC(=O)c1cc(C(C)(C)C)nn1C)c1ncc(-c2ccc(-c3ccn(C)n3)cc2)[nH]1 [Entry 217, (S)-3-(tert-butyl)-1-methyl-N-(1-(5-(4-(1-methyl-1H-pyrazol-3-yl)phenyl)-1H-imidazol-2-yl)-7-(methylamino)-7-oxoheptyl)-1H-pyrazole-5-carboxamide] | 1000 to 5000 nM | 1000 to 5000 nM
CNC(=O)CCCCC[C@H](NC(=O)Cc1cnc2ccccn12)c1ncc(-c2ccc(-n3cccn3)cc2)[nH]1 [Entry 163, (S)-7-(5-(4-(1H-pyrazol-1-yl)phenyl)-1H-imidazol-2-yl)-7-(2-(imidazo[1,2-a]pyridin-3-yl)acetamido)-N-methylheptanamide] | 1000 to 5000 nM | 1000 to 5000 nM
CNC(=O)CCCCC[C@H](NC(=O)CC1=CSC2=NCCCN12)c1ncc(-c2ccc3ccncc3c2)[nH]1 [Entry 155, (S)-7-(2-(6,7-dihydro-5H-thiazolo[3,2-a]pyrimidin-3-yl)acetamido)-7-(5-(isoquinolin-7-yl)-1H-imidazol-2-yl)-N-methyl-heptanamide] | 1000 to 5000 nM | 1000 to 5000 nM
CNC(=O)CCCCC[C@H](NC(=O)c1cc(C)nn1C)c1ncc(-c2ccc(-c3ccn(C)n3)cc2)[nH]1 [Entry 215, (S)-1,3-dimethyl-N-(1-(5-(4-(1-methyl-1H-pyrazol-3-yl)phenyl)-1H-imidazol-2-yl)-7-(methylamino)-7-oxoheptyl)-1H-pyrazole-5-carboxamide] | > 5000 nM | 1000 to 5000 nM
CNC(=O)CCCCC[C@H](NC(=O)c1cncs1)c1ncc(-c2ccc3c(cnn3C)c2)[nH]1 [Entry 191, (S)-N-(1-(5-(1-methyl-1H-indazol-5-yl)-1H-imidazol-2-yl)-7-(methylamino)-7-oxoheptyl)thiazole-5-carboxamide] | 1000 to 5000 nM | < 1000 nM
CNC(=O)CCCCC[C@H](NC(=O)c1ccnn1C)c1ncc(-c2ccc(-c3ccn(C)n3)cc2)[nH]1 [Entry 213, (S)-1-methyl-N-(1-(5-(4-(1-methyl-1H-pyrazol-3-yl)phenyl)-1H-imidazol-2-yl)-7-(methylamino)-7-oxoheptyl)-1H-pyrazole-5-carboxamide] | > 5000 nM | 1000 to 5000 nM
CNC(=O)CCCCC[C@H](NC(=O)Cn1cncn1)c1ncc(-c2ccc(-n3cccn3)cc2)[nH]1 [Entry 11, (S)-7-(2-(1H-1,2,4-triazol-1-yl)acetamido)-7-(5-(4-(1H-pyrazol-1-yl)phenyl)-1H-imidazol-2-yl)-N-methylheptanamide] | > 5000 nM | > 5000 nM
CNC(=O)CCCCC[C@H](NC(=O)OCc1ccccc1)c1ncc(-c2ccc3ccccc3c2)[nH]1 [Entry 72, (S)-benzyl (7-(methylamino)-1-(5-(naphthalen-2-yl)-1H-imidazol-2-yl)-7-oxo-heptyl)carbamate] | < 1000 nM | 1000 to 5000 nM
CNC(=O)CCCCC[C@H](NC(=O)c1ccns1)c1ncc(-c2ccc3ccncc3c2)[nH]1 [Entry 67] | < 1000 nM | < 1000 nM
CNC(=O)CCCCC[C@H](NC(=O)c1cnn(C(C)C)c1)c1ncc(-c2ccc(-c3ccn(C)n3)cc2)[nH]1 [Entry 50, (S)-1-isopropyl-N-(1-(5-(4-(1-methyl-1H-pyrazol-3-yl)phenyl)-1H-imidazol-2-yl)-7-(methylamino)-7-oxoheptyl)-1H-pyrazole-4-carboxamide] | 1000 to 5000 nM | < 1000 nM
CNC(=O)CCCCC[C@H](NC(=O)c1csc(-c2cccnc2)n1)c1ncc(-c2cc3ccccc3nc2OC)[nH]1 [Entry 30] | > 5000 nM | 1000 to 5000 nM
CNC(=O)CCCCC[C@H](NC(=O)c1nnc(C)s1)c1ncc(-c2cc3ccccc3nc2OC)[nH]1 [Entry 31, (S)-N-(1-(5-(2-methoxyquinolin-3-yl)-1H-imidazol-2-yl)-7-(methylamino)-7-oxoheptyl)-5-methyl-1,3,4-thiadiazole-2-carboxamide] | < 1000 nM | 1000 to 5000 nM
CNC(=O)CCCCC[C@H](NC(=O)Cn1nnc(N2CCCC2)n1)c1ncc(-c2ccc3ccccc3c2)[nH]1 [Entry 20] | < 1000 nM | 1000 to 5000 nM
CNC(=O)CCCCC[C@H](NC(=O)c1cscn1)c1ncc(-c2ccc3ccncc3c2)[nH]1 [Entry 47, (S)-N-(1-(5-(isoquinolin-7-yl)-1H-imidazol-2-yl)-7-(methylamino)-7-oxoheptyl)thiazole-4-carboxamide] | > 5000 nM | 1000 to 5000 nM
CNC(=O)CCCCC[C@H](NC(=O)c1cncs1)c1ncc(-c2ccc3cc[nH]c3c2)[nH]1 [Entry 173, (S)-N-(1-(5-(1H-indol-6-yl)-1H-imidazol-2-yl)-7-(methylamino)-7-oxoheptyl)thiazole-5-carboxamide] | 1000 to 5000 nM | 1000 to 5000 nM
CNC(=O)CCCCC[C@H](NC(=O)c1cncs1)c1ncc(-c2ccc3cc(C(F)(F)F)ncc3c2)[nH]1 [Entry 190] | < 1000 nM | < 1000 nM
CNC(=O)CCCCC[C@H](NC(=O)CCc1c(C)nc2ncnn2c1C)c1ncc(-c2ccc3ccncc3c2)[nH]1 [Entry 122] | < 1000 nM | < 1000 nM
